Data published in patent US20240366589A1, “NHE3-BINDING COMPOUNDS AND METHODS FOR INHIBITING PHOSPHATE TRANSPORT” (Ardelyx, Inc., priority 2013, published 2024).

Tests used:
[1] = test system: absorption of sodium from the intestinal lumen; assay: Fecal form score (FFS) 16 h after oral dose in rats; format: in vivo, rat; conditions: oral gavage, 16 h post-dose, scale 1-5
Experimental: (§1) Inhibition of intestinal sodium and phosphate absorption. Urinary sodium concentration and fecal form were measured to assess the ability of selected example compounds to inhibit the absorption of sodium from the intestinal lumen. Eight-week old Sprague-Dawley rats were purchased from Charles River Laboratories (Hollister, CA), were housed 2 per cage, and acclimated for at least 3 days before study initiation. Animals were fed Harlan Teklad Global 2018 rodent chow (Indianapolis, IN) and water ad libitum throughout the study and maintained in a standard light/dark cycle of 6 AM to 6 PM. On the day of the study, between 4 PM and 5 PM, a group of rats (n=6) were dosed via oral gavage with test compound, or a pharmaceutically acceptable salt thereof, or vehicle (water) at a volume of 10 mL/kg.
(§2) After dose administration animals were placed in individual metabolic cages where they were also fed the same chow in meal form and watered ad libitum. At 16 h post-dose, the urine samples were collected and fecal form was assessed by two independent observations. Fecal forms were scored according to a common scale associated with increasing fecal water to the wettest observation in the cage's collection funnel (1, normal pellet; 2, pellet adhering to sides of collection funnel due to moisture; 3, loss of normal pellet shape; 4, complete loss of shape with a blotting pattern; 5, liquid fecal streams evident). A rat's fecal form score (FFS) was determined by averaging both observational scores for all rats within a group (n=6). The vehicle group average was 1.

Rat NHE3 = biological target: T1, Rat NHE3 (Rattus norvegicus, UniProt P26433); assay: Cell-based NHE3 activity under prompt conditions (OK cells, BCECF pH recovery), rat NHE3; conditions: prompt conditions; for IC50: read-out: Prompt Rat NHE3 pIC50 (converted)
T1 construct: expressed in transfected cells; host or cells: Opossum kidney (OK) cells (ATCC), electroporation
Experimental: (§3) Cell-based activity under Prompt Conditions. Rat or human NHE3-mediated Na^+-dependent H antiport was measured using a modification of the pH sensitive dye method originally reported by Paradiso (PNAS USA. 81:7436-7440, 1984). Opossum kidney (OK) cells were obtained from the ATCC and propagated per their instructions. The rat NHE3 gene (GenBank M85300) or the human NHE3 gene (GenBank NM_004174.1) was introduced into OK cells via electroporation, and cells were seeded into 96 well plates and grown overnight. Medium was aspirated from the wells, cells were washed twice with NaCl-HEPES buffer (100 mM NaCl, 50 mM HEPES, 10 mM glucose, 5 mM KCl, 2 mM CaCl2, 1 mM MgCl2, pH 7.4), then incubated for 30 min at room temperature with NH4Cl-HEPES buffer (20 mM NH4Cl, 80 mM NaCl, 50 mM HEPES, 5 mM KCl, 2 mM CaCl2, 1 mM MgCl2, pH 7.4) containing 5 μM bis(acetoxymethyl) 3,3′-(3′,6′-bis(acetoxymethoxy)-5-((acetoxymethoxy)carbonyl)-3-oxo-3H-spiro[isobenzofuran-1,9′-xanthene]-2′,7′-diyl)dipropanoate (BCECF-AM).
(§4) Cells were washed twice with Ammonium free, Na^+-free HEPES (100 mM choline, 50 mM HEPES, 10 mM glucose, 5 mM KCl, 2 mM CaCl2, 1 mM MgCl2, pH 7.4) and incubated in the same buffer for 10 minutes at room temperature to lower intracellular pH. […] Initial rates were plotted as the average 2 or more replicates, and pIC50 values were estimated using GraphPad Prism.
(§5) Cell-based activity of NHE3 Activity under ‘Prompt’ Conditions. This assay was performed as described in Example 1 (supra).

[2] = test system: absorption of sodium from the intestinal lumen; assay: Inhibition of intestinal sodium absorption: urinary sodium (uNa) 16 h after single oral dose in rats; format: in vivo, rat; conditions: oral gavage, 16 h post-dose
Experimental: as §1, §2
For urine samples, the volumes were determined gravimetrically and centrifuged at 3,600×g. The supernatants were diluted 100-fold in deionized Milli-Q water then filtered through a 0.2 μm GHP Pall AcroPrep filter plate (Pall Life Sciences, Ann Arbor, MI) prior to analysis by ion chromatography. Ten microliters of each filtered extract was injected onto a Dionex ICS-3000 ion chromatograph system (Dionex, Sunnyvale, CA). Cations were separated by an isocratic method using 25 mM methanesulfonic acid as the eluent on an IonPac CS12A 2 mm i.d.×250 mm, 8 μm particle size cation exchange column (Dionex). Sodium was quantified using standards prepared from a cation standard mix containing Li^+, Na^+, NH4^+, K^+, Mg^2+, and Ca^2+ (Dionex). The mean mass of sodium urinated for every group in the 16 h period was determined with the vehicle group usually urinating approximately 21 mg sodium. The urine Na (uNa) for rats in the test groups were expressed as a percentage of the vehicle mean and the means were compared to that of the vehicle group by utilizing a one-way analysis of variance coupled with a Dunnett's post hoc test.
Further experiments were performed to test the compounds under the persistent and prompt conditions described above, and to test their effects on urinary excretion of sodium in rats. The latter was performed by orally dosing the compounds in rats (single dose) and measuring urinary Na excretion (as a % of vehicle). The results are indicated as percentage of urinary sodium (UNa %); low values indicate relatively active compounds.

[3] = test system: phosphorus and calcium levels in the urine of rats; assay: Urinary excretion of phosphate and calcium in rats (16 h overnight urine); format: in vivo, rat; conditions: rats, oral gavage, 16 h post-dose
Human NHE3 = biological target: T2, Human NHE3 (Homo sapiens, UniProt P48764); assay: Cell-based NHE3 activity under prompt conditions (OK cells, BCECF pH recovery), human NHE3; conditions: prompt conditions
T2 construct: expressed in transfected cells; host or cells: Opossum kidney (OK) cells (ATCC), electroporation
T2 sequence (P48764 26-834): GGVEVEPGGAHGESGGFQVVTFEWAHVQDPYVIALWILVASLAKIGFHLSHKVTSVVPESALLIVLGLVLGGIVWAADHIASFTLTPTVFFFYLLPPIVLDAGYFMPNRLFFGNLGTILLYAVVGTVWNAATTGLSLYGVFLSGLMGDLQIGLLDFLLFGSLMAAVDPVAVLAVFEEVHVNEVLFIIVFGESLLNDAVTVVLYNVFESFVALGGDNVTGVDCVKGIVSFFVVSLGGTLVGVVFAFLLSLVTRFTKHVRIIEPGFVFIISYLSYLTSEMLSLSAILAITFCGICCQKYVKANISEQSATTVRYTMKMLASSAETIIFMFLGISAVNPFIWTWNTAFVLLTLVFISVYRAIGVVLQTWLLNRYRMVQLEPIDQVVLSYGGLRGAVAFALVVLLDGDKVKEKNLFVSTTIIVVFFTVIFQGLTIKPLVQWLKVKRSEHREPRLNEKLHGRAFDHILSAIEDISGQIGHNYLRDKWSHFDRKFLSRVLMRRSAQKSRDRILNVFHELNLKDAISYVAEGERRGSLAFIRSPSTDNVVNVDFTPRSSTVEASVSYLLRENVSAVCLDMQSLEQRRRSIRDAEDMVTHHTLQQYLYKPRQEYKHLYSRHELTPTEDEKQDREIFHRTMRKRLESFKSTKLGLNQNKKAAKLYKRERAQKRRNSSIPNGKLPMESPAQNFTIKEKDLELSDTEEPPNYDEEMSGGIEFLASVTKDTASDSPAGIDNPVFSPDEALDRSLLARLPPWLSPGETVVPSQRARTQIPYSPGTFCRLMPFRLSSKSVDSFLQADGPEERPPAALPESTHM
Experimental: as §3, §4, §5

T1 sequence (P26433 29-831): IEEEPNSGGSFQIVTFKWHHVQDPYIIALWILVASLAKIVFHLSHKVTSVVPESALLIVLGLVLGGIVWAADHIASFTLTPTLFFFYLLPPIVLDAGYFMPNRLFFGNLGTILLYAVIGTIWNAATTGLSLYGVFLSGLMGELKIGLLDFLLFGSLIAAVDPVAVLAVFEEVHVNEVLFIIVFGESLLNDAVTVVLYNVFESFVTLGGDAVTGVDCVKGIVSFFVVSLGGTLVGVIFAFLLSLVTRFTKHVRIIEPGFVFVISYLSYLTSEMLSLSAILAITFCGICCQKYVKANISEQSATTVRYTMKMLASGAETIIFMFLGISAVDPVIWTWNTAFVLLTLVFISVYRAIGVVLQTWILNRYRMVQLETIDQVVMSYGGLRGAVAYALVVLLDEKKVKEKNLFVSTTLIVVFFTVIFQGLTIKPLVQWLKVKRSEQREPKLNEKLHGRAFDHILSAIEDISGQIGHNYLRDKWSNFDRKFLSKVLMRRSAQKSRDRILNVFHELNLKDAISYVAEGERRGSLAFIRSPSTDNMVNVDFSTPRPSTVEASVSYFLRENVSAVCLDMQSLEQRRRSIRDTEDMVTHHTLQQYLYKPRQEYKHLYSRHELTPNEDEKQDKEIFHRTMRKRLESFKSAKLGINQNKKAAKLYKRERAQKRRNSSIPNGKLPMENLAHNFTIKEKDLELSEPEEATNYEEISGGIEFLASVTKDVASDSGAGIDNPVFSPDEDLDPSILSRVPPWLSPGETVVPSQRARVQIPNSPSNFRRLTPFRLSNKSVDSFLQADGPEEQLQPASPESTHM

Structure (SMILES) | Fecal Form Score average ([1]; dose 10 mg/kg) | Prompt Rat NHE3 pIC50 (Rat NHE3) | Urine Na % of control ([2]; dose 10 mg/kg) | Urine P % of control ([3]; dose 10 mg/kg) | Prompt Human NHE3 pIC50 (Human NHE3) | Fecal Form Score average ([1]; dose 3 mg/kg) | Urine Na % of control ([2]; dose 3 mg/kg) | Urine P % of control ([3]; dose 3 mg/kg) | IC50 (Rat NHE3)
N=C(N)Nc1nc(-c2cccc(S(=O)(=O)NCCOCCOCCOCCN)c2)c2cc(Cl)ccc2n1 [compound 12] | 1 | 6.10 | 82% | 94% | 7.00 | – | – | – | –
CCN(CCOCCOCCNC(=O)NCCCN(CCCNC(=O)NCCOCCOCCN(CC)S(=O)(=O)c1cccc([C@@H]2CN(C)Cc3c(Cl)cc(Cl)cc32)c1)CCCNC(=O)NCCOCCOCCN(CC)S(=O)(=O)c1cccc([C@@H]2CN(C)Cc3c(Cl)cc(Cl)cc32)c1)S(=O)(=O)c1cccc([C@@H]2CN(C)Cc3c(Cl)cc(Cl)cc32)c1 [compound 132] | – | 6.00 | – | – | 7.70 | 1 | 65% | 88% | –
O=C(NCCOCCOCCNS(=O)(=O)c1ccc(O[C@H]2c3ccccc3C[C@@H]2N2CCCCC2)cc1)c1cccc(C(=O)NCCOCCOCCNS(=O)(=O)c2ccc(O[C@H]3c4ccccc4C[C@@H]3N3CCCCC3)cc2)c1 [compound 101] | 1 | <5.00 | 64% | 81% | 8.10 | – | – | – | –
O=C(O)CN(CCN(CC(=O)O)CC(=O)NCCOCCOCCNS(=O)(=O)c1ccc(O[C@H]2c3ccccc3C[C@@H]2N2CCCCC2)cc1)CC(=O)NCCOCCOCCNS(=O)(=O)c1ccc(O[C@H]2c3ccccc3C[C@@H]2N2CCCCC2)cc1 [compound 65] | 1 | – | 93% | 85% | 8.00 | – | – | – | 1.41 nM
CN(C)[C@H]1Cc2c(Cl)cc(Cl)cc2[C@@H]1Oc1ccc(S(=O)(=O)NCCOCCOCCNC(=O)CCC(C)(CCC(=O)NCCOCCOCCNS(=O)(=O)c2ccc(O[C@H]3c4cc(Cl)cc(Cl)c4C[C@@H]3N(C)C)cc2)NC(=O)CCC(=O)O)cc1 [compound 179] | – | 8.00 | – | – | 7.77 | 1 | 40% | 66% | –
C[C@@H](O)[C@H](NC(=O)NC(CCC(=O)NCCOCCOCCNS(=O)(=O)c1cccc([C@@H]2CN(C)Cc3c(Cl)cc(Cl)cc32)c1)(CCC(=O)NCCOCCOCCNS(=O)(=O)c1cccc([C@@H]2CN(C)Cc3c(Cl)cc(Cl)cc32)c1)CCC(=O)NCCOCCOCCNS(=O)(=O)c1cccc([C@@H]2CN(C)Cc3c(Cl)cc(Cl)cc32)c1)C(N)=O [compound 159] | – | 7.20 | – | – | 7.30 | 2 | 27% | 55% | –
O=C(NCCCCNC(=O)NCCOCCOCCNS(=O)(=O)c1ccc(O[C@H]2c3ccccc3C[C@@H]2N2CCCCC2)cc1)NCCOCCOCCNS(=O)(=O)c1ccc(O[C@H]2c3ccccc3C[C@@H]2N2CCCCC2)cc1 [compound 66] | 1 | – | 35% | 30% | 8.35 | – | – | – | 4.47 nM
NCCOCCOCCNS(=O)(=O)c1ccc(O[C@H]2c3cc(Cl)cc(Cl)c3C[C@@H]2N2CCCCC2)cc1 [compound 62] | 1 | <5.00 | 121% | 77% | 7.25 | – | – | – | –
C/C(=C\c1cc(F)c(Oc2ccc(S(=O)(=O)NCCOCCOCCOCCNCc3ccc(CNCCOCCOCCOCCNS(=O)(=O)c4ccc(Oc5c(F)cc(/C=C(\C)C(=O)N=C(N)N)cc5F)cc4)cc3)cc2)c(F)c1)C(=O)N=C(N)N [compound 13] | 1 | 6.70 | 74% | 56% | 7.40 | – | – | – | –
